This is an account of results in ChEMBL document CHEMBL1129199, “Trifluoromethyl alcohol and ketone inhibitors of metallo--lactamases” (Bioorg Med Chem Lett, 1996).

Assay [1] in a line: Compound was evaluated for inhibition of metallo beta lactamase from Aeromonas hydrophilia AE036. Further details: species or system Aeromonas hydrophila.
Assay [2] concerns Aeromonas hydrophila. In words: Compound was evaluated for kinetic data for the inhibition of metallo beta lactamase from Aeromonas hydrophilia AE036.
Assay [3] in a line: Compound was evaluated for inhibition of metallo beta lactamase from bacillus cereus 569H.
The nature of assay [4]: Compound was evaluated for inhibition of metallo beta lactamase from Pseudomonas aeruginosa 101.
Assay [5] can be described thus: Compound was evaluated for inhibition of metallo beta lactamase from xanthomonas maltophilia ULA-511. Further details: species or system Stenotrophomonas maltophilia.
The nature of assay [6]: Ratio of K+2/K of the compound.

Where only a bound is given, the exact number is not on record here.

One may read the Ki as a measure of affinity in units of concentration, obtained from inhibition or displacement. A high value points to lower affinity. `C[C@@H](NC(=O)COc1ccccc1)[C@@H](O)C(F)(F)F`: the Ki stood at 217 µM in assay [1], 700 µM in assay [3], 400 µM in assay [4] and 35 µM in assay [5]. In assay [2], this molecule showed a k+2 of 1.1 s⁻¹. Moreover, the k+2/k in assay [6] came out at 5.25 M⁻¹ s⁻¹.

As to `C[C@@H](NC(=O)COc1ccccc1)C(=O)C(F)(F)F`, the Ki in assay [1] is 11 µM; in assay [3], 700 µM; in assay [4], 500 µM; in assay [5], 3 µM. In assay [2], this molecule had a k+2 of 1 s⁻¹. In assay [6], the k+2/k came to 9.1 M⁻¹ s⁻¹.

Turning to `O=C(COc1ccccc1)N[C@@H](Cc1ccccc1)C(=O)C(F)(F)F`, the Ki was found to be 6 µM in assay [1], 500 µM in assay [3], 530 µM in assay [4] and 15 µM in assay [5]. Also, the k+2 in assay [2] was 4.3 s⁻¹. Also, the k+2/k in assay [6] turned out to be 7.2 M⁻¹ s⁻¹.

As to `O=C(COc1ccccc1)N[C@H](Cc1ccccc1)C(=O)C(F)(F)F`, the Ki in assay [3] amounted to 1000 µM.

On to `C[C@H](NC(=O)COc1ccccc1)C(=O)C(F)(F)F`, for which the Ki in assay [1] turned out to be 44 µM; in assay [3] it was 300 µM; in assay [4], 300 µM; in assay [5], 1.5 µM. Also, in assay [2], the k+2 was 4 s⁻¹. In addition, the k+2/k in assay [6] worked out at 9.1 M⁻¹ s⁻¹.

On to `C[C@H](NC(=O)COc1ccccc1)[C@@H](O)C(F)(F)F`, for which the Ki in assay [3] is 3000 µM; in assay [4] it was 400 µM; in assay [5], more than 5000 µM.

Regarding `O=C(COc1ccccc1)N[C@@H](Cc1ccccc1)[C@@H](O)C(F)(F)F`, the Ki was 19 µM in assay [1], 1000 µM in assay [3], 900 µM in assay [4] and more than 5000 µM in assay [5]. The same molecule showed a k+2 in assay [2] of 4.3 s⁻¹. Besides, in assay [6], the k+2/k amounted to 2.3 M⁻¹ s⁻¹.

Regarding `O=C(COc1ccccc1)N[C@H](Cc1ccccc1)[C@@H](O)C(F)(F)F`, the Ki in assay [1] is 20 µM; in assay [3], 30 µM; in assay [4], 60 µM; in assay [5], more than 5000 µM. Besides, the k+2 in assay [2] was 3.9 s⁻¹. Besides, in assay [6], the k+2/k was found to be 1.9 M⁻¹ s⁻¹.
